In patent US6784201B2, “Benzothiepines having activity as inhibitors of ileal bile acid transport and taurocholate uptake” (G.D. Searle & Company, priority 1994, dated 2004):

What follows are compounds tested against T1, human IBAT (Homo sapiens, UniProt Q12908) (assay: In vitro assay of IBAT-mediated uptake of [14C]-taurocholate (TC) in H14 cells). Conditions: Human TC IC50.
T1 construct: expressed in transfected cells; host or cells: Baby hamster kidney (BHK) cells, clone H14
T1 sequence (Q12908 1-348): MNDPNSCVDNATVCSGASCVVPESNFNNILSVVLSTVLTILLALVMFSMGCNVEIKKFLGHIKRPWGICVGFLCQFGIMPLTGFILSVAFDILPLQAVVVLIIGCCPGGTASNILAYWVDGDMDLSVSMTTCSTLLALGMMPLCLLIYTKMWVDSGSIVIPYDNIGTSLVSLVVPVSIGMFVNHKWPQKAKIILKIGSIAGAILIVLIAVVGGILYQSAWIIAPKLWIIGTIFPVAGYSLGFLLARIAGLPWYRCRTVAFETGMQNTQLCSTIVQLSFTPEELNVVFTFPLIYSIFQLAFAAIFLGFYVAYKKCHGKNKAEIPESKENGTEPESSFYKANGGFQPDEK
Assay type: cell-based
Method in brief: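 BHK cells stably expressing human IBAT (H14) were incubated 2 h at 37° C with compound and 3 μM final [14C]-taurocholate in DMEM (4.5 g/L glucose) plus 0.2% fatty acid-free BSA. After cold PBS washes, cell-associated radioactivity was measured by scintillation counting.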

Compound	IC50 [nM]
CCCCC1(CC)CS(=O)(=O)c2ccc(N(C)C)cc2C(c2ccccc2)C1O (stereo not shown) [Example 1159]	60

Same assay, conditions: read-out: Human TC IC50

Compound	IC50 [nM]
CCCCC1(CC)CS(=O)(=O)c2ccc(N(C)C)cc2C(c2ccc(OC)cc2)C1O (stereo not shown) [Example 1131]	20
CCCCC1(CCCC)CS(=O)(=O)c2ccc(N(C)C)cc2C(c2cccc(OCCOCCOCC[n+]3ccc4c(c3)CCCC4)c2)C1O (stereo not shown) [Example 1132]	20
CCCCC1(CCCC)CS(=O)(=O)c2ccc(N(C)C)cc2C(c2ccc(OC)c(OC)c2)C1O (stereo not shown) [Example 1135]	21
CCCCC1(CCCC)CS(=O)(=O)c2ccc(N(C)C)cc2C(c2cccc(OCCOCCOCC[n+]3ccc(C(C)(C)C)cc3)c2)C1O (stereo not shown) [Example 1138]	22
CCCCC1(CCCC)CS(=O)(=O)c2ccc(N(C)C)cc2C(c2ccc(F)c(F)c2)C1O (stereo not shown) [Example 1139]	22
CCCCC1(CCCC)CS(=O)(=O)c2ccc(NN(C)C)cc2C(c2cccc(OC)c2)C1O (stereo not shown) [Example 1140]	23
CCCCC1(CCCC)CS(=O)(=O)c2ccc(N(C)CC)cc2C(c2ccc(F)cc2)C1O (stereo not shown) [Example 1141]	23
CCCCC1(CCCC)CS(=O)(=O)c2ccc(N(C)C)cc2C(c2ccc(OCCOCCSCCN(CC)CC)c(F)c2)C1O (stereo not shown) [Example 1142]	24
CCCCC1(CCCC)CS(=O)(=O)c2ccc(N(C)C)cc2C(c2ccc(OCCCCCCCCCC[N+](C)(C)C)cc2)C1O (stereo not shown) [Example 1146]	29
CCCCC1(CCCC)CS(=O)(=O)c2ccc(N(CC)CC)cc2C(c2cccc(OC)c2)C1O (stereo not shown) [Example 1147]	29
CCCCC1(CCCC)CS(=O)(=O)c2ccc([S+](C)C)cc2C(c2ccc(F)cc2)C1O (stereo not shown) [Example 1148]	30
CCCCC1(CCCC)CS(=O)(=O)c2ccc(NCC)cc2C(c2ccc(F)cc2)C1O (stereo not shown) [Example 1149]	30
CCCCC1(CCCC)CS(=O)(=O)c2ccc(N(C)COCC)cc2C(c2ccccc2)C1O (stereo not shown) [Example 1152]	36
CCCCC1(CCCC)CS(=O)(=O)c2ccc(NC)cc2C(c2ccc(F)cc2)C1O (stereo not shown) [Example 1153]	37
CCCCC1(CCCC)CS(=O)(=O)c2c(OC)cccc2C(c2cccc(OC)c2)C1O (stereo not shown) [Example 1154]	37
CCCCC1(CCCC)CS(=O)(=O)c2ccc(OC)cc2C(c2ccncc2)C1O (stereo not shown) [Example 1158]	60
CCCCC1(CCCC)CS(=O)(=O)c2ccc(N(CC)CC)cc2C(c2ccc(F)cc2)C1O (stereo not shown) [Example 1160]	62
CCCCC1(CCCC)CS(=O)(=O)c2ccc(N(C)C)cc2C(c2cc(Cl)c(OC)c(Cl)c2)C1O (stereo not shown) [Example 1161]	63
CCCCC1(CCCC)CS(=O)(=O)c2ccc(OC)cc2C(c2cccc(N(C)C)c2)C1O (stereo not shown) [Example 1163]	90
CCCCC1(CCCC)CS(=O)(=O)c2ccc(OC)cc2C(c2ccncc2)C1O (stereo not shown) [Example 1164]	93
C=CCOc1ccc(C2c3cc(N(C)C)ccc3S(=O)(=O)CC(CCCC)(CCCC)C2O)cc1Cl (stereo not shown) [Example 1167]	120
CCCCC1(CCCC)CS(=O)(=O)c2cc(N(C)C)ccc2C(c2ccccc2)C1O (stereo not shown) [Example 1169]	120

Compound	IC50 [nM]
CCCCC1(CCCC)CS(=O)(=O)c2ccc(N(C)C)cc2C(c2ccc(OS(=O)(=O)C(F)(F)F)cc2)C1O (stereo not shown) [Example 1171]	140
CCCCC1(CCCC)CS(=O)(=O)c2ccc(OC)cc2C(c2ccncc2)C1O (stereo not shown) [Example 1172]	140
CCCCC1(CC)CS(=O)(=O)c2ccc(-c3ccccc3)cc2C(c2cccc(OC)c2)C1O (stereo not shown) [Example 1174]	150
CCCCC1(CCCC)CS(=O)(=O)c2c(F)cccc2C(c2ccc(F)cc2)C1O (stereo not shown) [Example 1176]	180
CCCCN(C)c1ccc2c(c1)C(c1cccc(OC)c1)C(O)C(CCCC)(CCCC)CS2(=O)=O (stereo not shown) [Example 1177]	180
CCCCC1(CCCC)CS(=O)(=O)c2ccc(N(C)C)cc2C(c2cccc(OS(=O)(=O)C(F)(F)F)c2)C1O (stereo not shown) [Example 1178]	190
CCCCC1(CCCC)CS(=O)(=O)c2cc(OC)ccc2C(c2ccccc2)C1O (stereo not shown) [Example 1179]	190
CCCCC1(CCCC)CS(=O)(=O)c2ccc(OC)cc2C(c2ccc(N(C)C)cc2)C1O (stereo not shown) [Example 1182]	250
CCCCC1(CCCC)CS(=O)(=O)c2ccc(F)cc2C(c2cccc(OC)c2)C1O (stereo not shown) [Example 1183]	280
CCCCC1(CCCC)CS(=O)(=O)c2ccc(F)cc2C(c2ccc(F)cc2)C1O (stereo not shown) [Example 1185]	280
CCCCC1(CCCC)CS(=O)(=O)c2c(F)cc(F)cc2C(c2ccccc2)C1O (stereo not shown) [Example 1186]	300
CCCCC1(CCCC)CS(=O)(=O)c2ccc(C)cc2C(c2ccc(F)cc2)C1O (stereo not shown) [Example 1187]	320
CCCCC1(CCCC)CS(=O)(=O)c2ccc([N+](C)(C)C)cc2C(c2ccc(OC)cc2)C1O (stereo not shown) [Example 1188]	350
CCCCC1(CCCC)CS(=O)(=O)c2ccc(Br)cc2C(c2ccccc2Br)C1O (stereo not shown) [Example 1190]	550
CCCCC1(CCCC)CS(=O)(=O)c2ccc(O)cc2C(c2ccc(N(C)C)cc2)C1O (stereo not shown) [Example 1191]	650
CCCCC1(CC)CS(=O)(=O)c2ccc(N(C)C=O)cc2C(c2ccccc2)C1=O (stereo not shown) [Example 1197]	2200
CCCCC1(CCCC)CS(=O)(=O)c2ccc(OC)cc2C(c2cc[n+]([O-])cc2)C1O (stereo not shown) [Example 1198]	2500
CCCCC1(CCCC)CS(=O)(=O)c2ccc(C)cc2CC1O (stereo not shown) [Example 1201]	8300
CCCCC1(CCCC)CS(=O)(=O)c2ccc(OC)cc2C(c2ccc([N+](C)(C)C)cc2)C1O (stereo not shown) [Example 1202]	40000
CCCCC1(CCCC)CS(=O)(=O)c2ccc(OC)cc2C(c2ccc(F)cc2)C1O (stereo not shown) [Example 1204]	50
CCCCC1(CCCC)CS(=O)(=O)c2ccc(N(C)C)cc2C(c2ccc(OCCOCCOCCI)cc2)C1O (stereo not shown) [Example 1205]	34

Results, then the compound that gave them:

IC50 [nM]	Compound
4000	CCCCC1(CCCC)CS(=O)(=O)c2ccc(N(C)C)cc2C(c2ccc(OCCOCCOCCOc3ccc(C4c5cc(N(C)C)ccc5S(=O)(=O)CC(CCCC)(CCCC)C4O)cc3)cc2)C1O (stereo not shown) [Example 1199]
2000	CCCCC1(CCCC)CS(=O)(=O)c2ccc(OC)cc2C(c2cccc([N+](C)(C)C)c2)C1O (stereo not shown) [Example 1196]
1700	CCCCC1(CCCC)CS(=O)(=O)c2ccc(N3CCN(C)CC3)cc2C(c2ccc(OC)cc2)C1O (stereo not shown) [Example 1195]
1600	CCCCC1(CCCC)CS(=O)(=O)c2ccc(N(C)C)cc2C(c2ccc(OCCOCCOCCOc3ccc(C4c5cc(N(C)C)ccc5S(=O)(=O)CC(CCCC)(CCCC)C4O)cc3F)c(F)c2)C1O (stereo not shown) [Example 1194]
1000	CCCCC1(CCCC)CS(=O)(=O)c2ccc(O)cc2C(c2cccc(N(C)C)c2)C1O (stereo not shown) [Example 1192]
350	CCCCC1(CCCC)CS(=O)(=O)c2ccc([N+](C)(C)C)cc2C(c2ccc(F)c(F)c2)C1O (stereo not shown) [Example 1189]
280	CCCCC1(CCCC)CS(=O)(=O)c2c(F)cc(F)cc2C(c2ccc(F)cc2)C1O (stereo not shown) [Example 1184]
220	CCCCN(C)c1ccc2c(c1)C(c1ccc(F)cc1)C(O)C(CCCC)(CCCC)CS2(=O)=O (stereo not shown) [Example 1181]
200	CCCCC1(CCCC)CS(=O)(=O)c2ccc([N+](C)(C)C)cc2C(c2ccccc2)C1O (stereo not shown) [Example 1180]
170	CCCCC1(CC)CS(=O)(=O)c2ccc(S(C)(=O)=O)cc2C(c2cccc(OC)c2)C1O (stereo not shown) [Example 1175]
120	CCCCC1(CCCC)CS(=O)(=O)c2ccc([N+](C)(C)C)cc2C(c2ccc(O)cc2)C1O (stereo not shown) [Example 1168]
110	CCCCC1(CCCC)CS(=O)(=O)c2ccc([N+](C)(C)C)cc2C(c2ccc(OC)c(F)c2)C1O (stereo not shown) [Example 1165]
110	CCCCC1(CCCC)CS(=O)(=O)c2ccc([N+](C)(C)C)cc2C(c2cccc(O)c2)C1O (stereo not shown) [Example 1166]
68	CCCCC1(CCCC)CS(=O)(=O)c2ccc(N(C)C)cc2C(c2cc(Cl)cc(Cl)c2)C1O (stereo not shown) [Example 1207]
63	CCCCC1(CCCC)CS(=O)(=O)c2ccc(N(C)C)cc2C(c2ccccc2)C1O (stereo not shown) [Example 1162]
42	CCCCC1(CCCC)CS(=O)(=O)c2ccc(N(C)C)cc2C(c2ccc(OC)cc2)C1O (stereo not shown) [Example 1208]
40	CCCCC1(CCCC)CS(=O)(=O)c2c(cc(F)cc2N(C)C)C(c2ccc(F)cc2)C1O (stereo not shown) [Example 1157]
39	CCCCC1(CCCC)CS(=O)(=O)c2ccc(C)cc2C(c2ccc(F)cc2)C1O (stereo not shown) [Example 1155]
39	CCCCC1(CCCC)CS(=O)(=O)c2ccc(SC)cc2C(c2ccc(F)cc2)C1O (stereo not shown) [Example 1156]
35	CCCCC1(CCCC)CS(=O)(=O)c2ccc(N(C)C)cc2C(c2cccc(C[N+](CC)(CC)CC)c2)C1O (stereo not shown) [Example 1206]
30	CCCCC1(CCCC)CS(=O)(=O)c2ccc(N(C)CC)cc2C(c2cccc(OC)c2)C1O (stereo not shown) [Example 1150]
29	CCCCC1(CCCC)CS(=O)(=O)c2c(cccc2N(C)C)C(c2ccc(OC)cc2)C1O (stereo not shown) [Example 1145]
21	CCCCC1(CCCC)CS(=O)(=O)c2ccc(N(C)C)cc2C(c2cccc(OCCOCCOCCI)c2)C1O (stereo not shown) [Example 1136]
21	CCCCC1(CCCC)CS(=O)(=O)c2c(NN(C)C)cccc2C(c2ccc(F)cc2)C1O (stereo not shown) [Example 1137]
20	CCCCC1(CCCC)CS(=O)(=O)c2ccc(N(C)C)cc2C(c2ccc(CC#N)cc2)C1O (stereo not shown) [Example 1133]
20	CCCCC1(CC)CS(=O)(=O)c2ccc(N(C)C)cc2C(c2cccc(OCCCCOC(C)=O)c2)C1O (stereo not shown) [Example 1134]
